The text below walks through data of patent publication US9115092B2, “Substituted quinazoline and pyrido-pyrimidine derivatives” (Asana Biosciences, LLC, priority 2010, dated 2015).

Test [1] addresses T1, PI3Kα (wild-type), P110/P85α (Homo sapiens, UniProt P42336).
T1 construct: made in house; host or cells: SF9 insect cells
Briefly: PI3 Kinase TR-FRET assay, PI3Kα (wild-type). It counts as biochemical. Put shortly:
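Sf9-expressed His-purified P110/P85α (5 ng) preincubated 60 min RT with compound and PIP2 in buffer with 40 mM MgCl2, 5 mM DTT; reaction started with ATP (PIP2 and ATP both 10 μM), 30 min RT. PIP3 detected by TR-FRET displacement, 665/615 nm ratio; IC50 from dose-response curves.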

The target in test [2] is T2, mTOR kinase (Homo sapiens, UniProt P42345).
T2 construct: purchased Millipore, USA
The test is described as follows: mTOR kinase TR-FRET assay. In kind it is biochemical. The settings on record: read-out: mTO R. In a few lines: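 Compounds preincubated 60 min with mTOR (5 ng) in HEPES pH 7.5, EGTA, MnCl2; ULight-p70 S6K Thr389 peptide (50 nM) and ATP (20 μM) then added, 60 min at room temperature. EDTA-stopped, Eu-anti-phospho antibody detection by TR-FRET (665/615 nm); IC50 from variable-slope sigmoidal fit.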

Test [3] has as its system pAKT(5473) (phosphorylated at serine 473), PC3 cells. The test is described as follows: In-cell Western assay, pAKT(5473) in PC3 cells. It counts as cell-based. The settings on record: Homo sapiens, PC-3, In-cell Western, read-out: pAkt-S473. As to the method:
(§1) Cells from human prostate cancer cell line PC3 (American Type Culture Collection (ATCC), Manassas, Va. 20108 USA) were seeded at an optimal density of 22,000 cell/well in 96-well plates containing Ham's F12K medium (90 μL) and incubated overnight. The compound dilutions were carried out in 100% DMSO followed by a dilution in the medium. Test compounds were added in serial dilutions to the wells and incubated for 2 h. The cells were washed and fixed with 4% paraformaldehyde. After incubation at room temperature for 1 h in the dark, blocking was done for 2 h at room temperature. Primary antibodies for phosphorylated (p) AKT(5473) (phosphorylated at serine 473), pAKT(T308) (phosphorylated at threonine 308) and for pS6RP(S235/236) (phosphorylated at serine 235/236) (commercially available from Cell Signaling Technology®, whose protocol was followed for the in-cell western assay, were diluted to the required concentration and added to the corresponding wells followed by overnight incubation at 4° C. Eu-labeled rabbit (PE) (Perkin-Elmer USA catalog #AD0106) secondary antibody was added and incubated for 2 h at room temperature. Delfia® enhancement solution (cat #1244-105, Perkin Elmer USA) was subsequently added to the plate before taking the reading at 615 nm with excitation wavelength of 340 nm, after which 0.5 μg/mL of Hoechst® 33258 dye (Catalog #86140-5, Sigma) was added to the plate and fluorescence emission was read at 460 nm with 355 nm excitation, to evaluate the correction factor. IC50 values were calculated using a sigmoidal dose-response curve fit in GraphPad Prism® v5 software.

Test [4] concerns pAKT(T308) (phosphorylated at threonine 308), PC3 cells. The test is described as follows: In-cell Western assay, pAKT(T308) in PC3 cells. In kind it is cell-based. As to conditions: Homo sapiens, PC-3, In-cell Western. As to the method: as §1
Test [5] deals with pS6RP(S235/236), PC3 cells. Briefly: In-cell Western assay, pS6RP(S235/236) in PC3 cells. It counts as cell-based, human. As to conditions: Homo sapiens, PC-3, In-cell Western. In a few lines: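 Overnight-seeded PC3 cells were treated 2 h with serially diluted compound, then fixed and immunostained with phospho-specific primary antibodies and Eu-labelled secondary. Time-resolved Eu signal read at 615 nm (ex 340 nm), normalised by Hoechst 33258 staining (ex 355/em 460 nm); IC50 from sigmoidal dose-response fit.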

Test [6] has as its system PC3 cells. Briefly: XTT assay for cell viability, PC3 cells. It counts as cell-based, human. As to conditions: Homo sapiens, PC-3, cell viability. Put shortly: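 PC3 cells seeded at 1000 cells/well, grown 24 h, then exposed to serial dilutions of compound for 96 h. Viability read by XTT dye at 37° C, absorbance 465 nm. EC50 from sigmoidal dose-response fit.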
In general terms: Formazan colour is commonly taken as a measure of viable cells.

Each structure is given as a SMILES string. Some results are limits rather than exact numbers.

T1 sequence (P42336 whole entry): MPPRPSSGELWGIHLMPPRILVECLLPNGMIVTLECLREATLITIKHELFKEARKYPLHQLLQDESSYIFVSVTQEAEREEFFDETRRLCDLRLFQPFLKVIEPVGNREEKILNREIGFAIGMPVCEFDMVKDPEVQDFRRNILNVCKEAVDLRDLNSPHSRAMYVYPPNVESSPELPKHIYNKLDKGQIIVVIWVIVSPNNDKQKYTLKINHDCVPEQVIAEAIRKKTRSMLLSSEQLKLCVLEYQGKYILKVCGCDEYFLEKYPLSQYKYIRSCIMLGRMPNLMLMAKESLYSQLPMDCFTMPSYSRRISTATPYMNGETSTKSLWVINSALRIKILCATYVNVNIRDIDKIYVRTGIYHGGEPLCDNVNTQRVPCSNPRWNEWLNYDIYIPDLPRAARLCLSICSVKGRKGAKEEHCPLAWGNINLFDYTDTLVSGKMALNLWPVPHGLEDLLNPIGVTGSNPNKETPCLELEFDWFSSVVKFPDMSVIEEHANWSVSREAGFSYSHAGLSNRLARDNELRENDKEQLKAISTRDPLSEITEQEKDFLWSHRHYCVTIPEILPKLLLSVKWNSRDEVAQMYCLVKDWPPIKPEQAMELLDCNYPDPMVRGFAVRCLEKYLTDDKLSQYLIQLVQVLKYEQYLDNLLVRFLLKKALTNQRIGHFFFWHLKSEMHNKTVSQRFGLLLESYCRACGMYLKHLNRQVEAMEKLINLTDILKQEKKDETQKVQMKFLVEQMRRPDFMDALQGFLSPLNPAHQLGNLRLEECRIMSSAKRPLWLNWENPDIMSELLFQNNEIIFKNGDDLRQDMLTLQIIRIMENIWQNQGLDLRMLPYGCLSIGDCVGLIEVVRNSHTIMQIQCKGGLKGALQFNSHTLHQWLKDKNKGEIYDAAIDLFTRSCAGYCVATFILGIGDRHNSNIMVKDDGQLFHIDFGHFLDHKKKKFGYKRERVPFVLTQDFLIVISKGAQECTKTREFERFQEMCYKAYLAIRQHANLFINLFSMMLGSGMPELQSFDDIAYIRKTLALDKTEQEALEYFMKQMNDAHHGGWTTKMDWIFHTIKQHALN
T1 sequence (P27986 whole entry partner): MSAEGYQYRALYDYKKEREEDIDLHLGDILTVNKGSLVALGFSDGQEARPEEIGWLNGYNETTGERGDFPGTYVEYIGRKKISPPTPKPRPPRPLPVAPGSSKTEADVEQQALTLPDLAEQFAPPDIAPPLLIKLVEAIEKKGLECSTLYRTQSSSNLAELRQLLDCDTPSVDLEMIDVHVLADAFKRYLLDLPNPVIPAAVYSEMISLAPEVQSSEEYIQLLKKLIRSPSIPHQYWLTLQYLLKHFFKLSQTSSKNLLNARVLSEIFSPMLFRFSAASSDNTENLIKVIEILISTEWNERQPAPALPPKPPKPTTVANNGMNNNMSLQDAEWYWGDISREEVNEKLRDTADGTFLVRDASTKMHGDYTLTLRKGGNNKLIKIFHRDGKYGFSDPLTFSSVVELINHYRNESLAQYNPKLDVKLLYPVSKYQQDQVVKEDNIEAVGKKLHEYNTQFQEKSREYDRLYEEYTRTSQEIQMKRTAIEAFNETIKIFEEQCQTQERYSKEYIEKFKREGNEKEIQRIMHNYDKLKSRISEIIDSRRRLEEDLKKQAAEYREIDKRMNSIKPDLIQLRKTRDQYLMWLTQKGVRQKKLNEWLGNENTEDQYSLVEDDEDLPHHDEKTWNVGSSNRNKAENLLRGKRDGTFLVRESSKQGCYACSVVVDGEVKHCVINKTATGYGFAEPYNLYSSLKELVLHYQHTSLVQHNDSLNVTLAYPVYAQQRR

Take `CNC(=O)c1ccc(NC(=O)Nc2ccc(-c3nc(N4CCOCC4)c4ccc(-c5cccc(S(C)(=O)=O)c5)cc4n3)cc2)cc1` [Example 20, 4-(3-{4-[7-(3-methanesulfonyl-phenyl)-4-morpholin-4-yl-quinazolin-2-yl]-phenyl}-ureido)-N-methyl-benzamide]: the IC50 in test [1] is below 50 nM; in test [2], below 50 nM; in test [3] it was 100 to 500 nM; in test [4], 100 to 500 nM; in test [5] it was 100 to 500 nM; in test [6], 100 to 500 nM.

With `CN(C)C(=O)c1ccc(NC(=O)Nc2ccc(-c3nc(N4CCOCC4)c4ccc(-c5cccc(S(C)(=O)=O)c5)cc4n3)cc2F)cc1` [Example 118, 4-(3-(2-fluoro-4-(7-(3-(methylsulfonyl)phenyl)-4-morpholino-quinazolin-2-yl)phenyl)ureido)-N,N-dimethyl-benzamide], the IC50 in test [1] is below 50 nM; in test [2], below 50 nM; in test [3], 501 to 5000 nM; in test [5], 201 to 10000 nM; in test [6], 201 to 10000 nM.

For `CN(C)C(=O)c1ccc(NC(=O)Nc2ccc(-c3nc(N4CCOCC4)c4ncc(-c5cccnc5)cc4n3)cc2)cc1` [Example 46, N,N-dimethyl-4-{3-[4-(4-morpholin-4-yl-7-pyridin-3-yl-pyrido[3,2-d]pyrimidin-2-yl)-phenyl]-ureido}-benzamide], the IC50 is below 50 nM in test [1]; below 50 nM in test [2]; below 100 nM in test [3]; 100 to 500 nM in test [4]; below 100 nM in test [5]; below 100 nM in test [6].

On to `CN(C)C(=O)c1ccc(NC(=O)Nc2ccc(-c3nc(N4CCOCC4)c4ccc(-c5cnn(C)c5)cc4n3)cc2)cc1` [Example 22, N,N-dimethyl-4-(3-{4-[7-(1-methyl-1H-pyrazol-4-yl)-4-morpholin-4-yl-quinazolin-2-yl]-phenyl}-ureido)-benzamide], for which the IC50 in test [1] was below 50 nM; in test [2], below 50 nM; in test [3], 100 to 500 nM; in test [4], 100 to 500 nM; in test [5], below 100 nM; in test [6], below 100 nM.

For `CN(C)C(=O)c1ccc(NC(=O)Nc2ccc(-c3nc(N4CCOCC4)c4ccc(-c5ccco5)cc4n3)cc2)c(F)c1` [Example 160, 3-fluoro-4-(3-(4-(7-(furan-2-yl)-4-morpholino-quinazolin-2-yl)phenyl)ureido)-N,N-dimethyl-benzamide], the IC50 was below 50 nM in test [1], 50 to 200 nM in test [2], 501 to 5000 nM in test [3] and below 100 nM in test [6].

On to `CN(C)CCN(C)C(=O)c1ccc(NC(=O)Nc2ccc(-c3nc(N4CCOCC4)c4ccc(-c5cncnc5)cc4n3)cc2)cc1` [Example 44, N-(2-dimethylamino-ethyl)-N-methyl-4-{3-[4-(4-morpholin-4-yl-7-pyrimidin-5-yl-quinazolin-2-yl)-phenyl]-ureido}-benzamide], for which the IC50 is below 50 nM in test [1]; below 50 nM in test [2]; below 100 nM in test [3]; below 100 nM in test [4]; below 100 nM in test [5]; below 100 nM in test [6].

For the compound `CN(C)C(=O)c1ccc(NC(=O)Nc2ccc(-c3nc(N4CCOCC4)c4cc(F)c(-c5cnn(C)c5)cc4n3)cc2)cc1` [Example 35, 4-(3-{4-[6-Fluoro-7-(1-methyl-1H-pyrazol-4-yl)-4-morpholin-4-yl-quinazolin-2-yl]-phenyl}-ureido)-N,N-dimethyl-benzamide], the IC50 in test [1] was below 50 nM; in test [2], below 50 nM; in test [3], 100 to 500 nM; in test [4] it was 100 to 500 nM; in test [5], below 100 nM; in test [6], below 100 nM.

As for `CN1CCN(C(=O)c2ccc(NC(=O)Nc3ccc(-c4nc(N5CCOCC5)c5ccc(-c6cccnc6)cc5n4)cc3)cc2)CC1` [Example 33, 1-[4-(4-methyl-piperazine-1-carbonyl)-phenyl]-3-[4-(4-morpholin-4-yl-7-pyridin-3-yl-quinazolin-2-yl)-phenyl]-urea], the IC50 in test [1] is below 50 nM; in test [2], below 50 nM; in test [3], 100 to 500 nM; in test [4], 100 to 500 nM; in test [5], below 100 nM; in test [6] it was below 100 nM.

Take `CN(C)C(=O)c1ccc(NC(=O)Nc2ccc(-c3nc(N4CCOCC4)c4ncc(-c5cnn(C)c5)cc4n3)cc2)cc1` [Example 42, N,N-dimethyl-4-(3-{4-[7-(1-methyl-1H-pyrazol-4-yl)-4-morpholin-4-yl-pyrido[3,2-d]pyrimidin-2-yl]-phenyl}-ureido)-benzamide]: the IC50 was below 50 nM in test [1]; below 50 nM in test [2]; below 100 nM in test [3]; 100 to 500 nM in test [4]; 100 to 500 nM in test [5]; below 100 nM in test [6].

In the case of `CN(C)C(=O)c1ccc(NC(=O)Nc2ccc(-c3nc(N4CCOCC4)c4ccc(-c5cccnc5)cc4n3)cc2)cc1` [Example 24, N,N-dimethyl-4-{3-[4-(4-morpholin-4-yl-7-pyridin-3-yl-quinazolin-2-yl)-phenyl]-ureido}-benzamide], the IC50 in test [1] was below 50 nM; in test [2], below 50 nM; in test [3], 100 to 500 nM; in test [4], 100 to 500 nM; in test [5], below 100 nM; in test [6] it was below 100 nM.

For `CC(=O)Nc1ccc(NC(=O)Nc2ccc(-c3nc(N4CCOCC4)c4ccc(-c5cncnc5)cc4n3)cc2)cc1` [Example 291, N-(4-(3-(4-(4-morpholino-7-(pyrimidin-5-yl)quinazolin-2-yl)phenyl)ureido)phenyl)-acetamide], the IC50 was below 50 nM in test [1]; below 50 nM in test [2]; 501 to 5000 nM in test [4]; 100 to 500 nM in test [5]; 100 to 500 nM in test [6].

On to `CN(C)C(=O)c1ccc(NC(=O)Nc2ccc(-c3nc(N4CCOCC4)c4ccc(-c5cccc(S(C)(=O)=O)c5)cc4n3)cc2)cc1` [Example 19, 4-(3-{4-[7-(3-methanesulfonyl-phenyl)-4-morpholin-4-yl-quinazolin-2-yl]-phenyl}-ureido)-N,N-dimethyl-benzamide], for which the IC50 in test [1] was below 50 nM; in test [2], below 50 nM; in test [3], 100 to 500 nM; in test [4], 100 to 500 nM; in test [5], below 100 nM; in test [6] it was below 100 nM.

Take `CC(=O)Nc1cccc(-c2ccc3c(N4CCOCC4)nc(-c4ccc(NC(=O)Nc5ccc(C(=O)N(C)C)cc5)cc4)nc3c2)c1` [Example 49, 4-(3-{4-[7-(3-acetylamino-phenyl)-4-morpholin-4-yl-quinazolin-2-yl]-phenyl}-ureido)-N,N-dimethyl-benzamide]: the IC50 is below 50 nM in test [1]; below 50 nM in test [2]; 100 to 500 nM in test [3]; 100 to 500 nM in test [4]; below 100 nM in test [5]; below 100 nM in test [6].

Take `CN(C)C(=O)c1ccc(NC(=O)Nc2ccc(-c3nc(N4CCOCC4)c4ccc(-c5ccccn5)cc4n3)cc2)cc1F` [Example 267, 2-fluoro-N,N-dimethyl-4-(3-(4-(4-morpholino-7-(pyridin-2-yl)quinazolin-2-yl)phenyl)ureido)-benzamide]: the IC50 was below 50 nM in test [1], below 50 nM in test [2], 501 to 5000 nM in test [3] and 201 to 10000 nM in test [6].

With `CN(C)C(=O)c1ccc(NC(=O)Nc2ccc(-c3nc(N4CCOCC4)c4ccc(-c5ccccn5)cc4n3)cc2)cc1` [Example 155, N,N-dimethyl-4-(3-(4-(4-morpholino-7-(pyridin-2-yl)quinazolin-2-yl)phenyl)ureido)-benzamide], the IC50 in test [1] is below 50 nM; in test [2], below 50 nM; in test [3], below 100 nM; in test [6] it was 201 to 10000 nM.
